Experimental data published in the NIST ThermoML archive (doi:10.1007/s10765-011-1149-x).

Experiment: xn = mol fraction of the nth substance listed
Conditions: 101 kPa, Liquid, Vibrating tube method

Cc1cc(C)nc(C)c1 [2,4,6-trimethylpyridine] + OCCO
Conditions | mass density [kg/m3]
276.15 K, x1 = 0.0227 | 1116.64
276.15 K, x1 = 0.0509 | 1106.81
276.15 K, x1 = 0.1024 | 1090.72
276.15 K, x1 = 0.1996 | 1065.35
276.15 K, x1 = 0.2983 | 1043.61
276.15 K, x1 = 0.4014 | 1024.29
276.15 K, x1 = 0.4958 | 1008.47
276.15 K, x1 = 0.5984 | 991.05
276.15 K, x1 = 0.6974 | 975.68
276.15 K, x1 = 0.7927 | 959.81
276.15 K, x1 = 0.8896 | 944.84
277.15 K, x1 = 0.0227 | 1115.94
277.15 K, x1 = 0.0509 | 1106.1
277.15 K, x1 = 0.1996 | 1064.61
277.15 K, x1 = 0.2983 | 1042.81
277.15 K, x1 = 0.4014 | 1023.47
277.15 K, x1 = 0.4958 | 1007.63
277.15 K, x1 = 0.5984 | 990.18
277.15 K, x1 = 0.6974 | 974.81
277.15 K, x1 = 0.7927 | 958.95
277.15 K, x1 = 0.8896 | 944
277.16 K, x1 = 0.1024 | 1090
283.15 K, x1 = 0.0227 | 1111.72
283.15 K, x1 = 0.0509 | 1101.82
283.15 K, x1 = 0.1996 | 1060.1
283.15 K, x1 = 0.2983 | 1038.02
283.15 K, x1 = 0.4014 | 1018.5
283.15 K, x1 = 0.5984 | 985
283.15 K, x1 = 0.7927 | 953.81
283.15 K, x1 = 0.8896 | 938.89
283.16 K, x1 = 0.1024 | 1085.61
283.16 K, x1 = 0.4958 | 1002.53
283.16 K, x1 = 0.6974 | 969.63
288.15 K, x1 = 0.0227 | 1108.21
288.15 K, x1 = 0.0509 | 1098.26
288.15 K, x1 = 0.1024 | 1081.94
288.15 K, x1 = 0.1996 | 1056.23
288.15 K, x1 = 0.2983 | 1034.02
288.15 K, x1 = 0.4014 | 1014.34
288.15 K, x1 = 0.4958 | 998.27
288.15 K, x1 = 0.5984 | 980.68
288.15 K, x1 = 0.6974 | 965.31
288.15 K, x1 = 0.7927 | 949.52
288.15 K, x1 = 0.8896 | 934.64
293.14 K, x1 = 0.1024 | 1078.26
293.15 K, x1 = 0.0227 | 1104.68
293.15 K, x1 = 0.0509 | 1094.67
293.15 K, x1 = 0.1996 | 1052.33
293.15 K, x1 = 0.2983 | 1029.98
293.15 K, x1 = 0.4014 | 1010.15
293.15 K, x1 = 0.4958 | 993.97
293.15 K, x1 = 0.5984 | 976.33
293.15 K, x1 = 0.6974 | 960.96
293.15 K, x1 = 0.7927 | 945.2
293.15 K, x1 = 0.8896 | 930.36
298.14 K, x1 = 0.0227 | 1101.13
298.14 K, x1 = 0.0509 | 1091.07
298.14 K, x1 = 0.1024 | 1074.55
298.14 K, x1 = 0.2983 | 1025.93
298.14 K, x1 = 0.4958 | 989.66
298.14 K, x1 = 0.8896 | 926.07
298.15 K, x1 = 0.1996 | 1048.43
298.15 K, x1 = 0.4014 | 1005.94
298.15 K, x1 = 0.5984 | 971.96
298.15 K, x1 = 0.6974 | 956.59
298.15 K, x1 = 0.7927 | 940.86
303.15 K, x1 = 0.0227 | 1097.58
303.15 K, x1 = 0.0509 | 1087.45
303.15 K, x1 = 0.1024 | 1070.84
303.15 K, x1 = 0.1996 | 1044.52
303.15 K, x1 = 0.2983 | 1021.84
303.15 K, x1 = 0.4014 | 1001.71
303.15 K, x1 = 0.4958 | 985.33
303.15 K, x1 = 0.5984 | 967.57
303.15 K, x1 = 0.6974 | 952.2
303.15 K, x1 = 0.7927 | 936.51
303.15 K, x1 = 0.8896 | 921.76
308.14 K, x1 = 0.4014 | 997.46
308.14 K, x1 = 0.5984 | 963.16
308.15 K, x1 = 0.0227 | 1094.01
308.15 K, x1 = 0.0509 | 1083.83
308.15 K, x1 = 0.1024 | 1067.1
308.15 K, x1 = 0.1996 | 1040.64
308.15 K, x1 = 0.2983 | 1017.74
308.15 K, x1 = 0.4958 | 980.98
308.15 K, x1 = 0.6974 | 947.78
308.15 K, x1 = 0.7927 | 932.13
308.15 K, x1 = 0.8896 | 917.43
313.14 K, x1 = 0.1024 | 1063.34
313.14 K, x1 = 0.1996 | 1036.74
313.14 K, x1 = 0.2983 | 1013.62
313.14 K, x1 = 0.4014 | 993.19
313.14 K, x1 = 0.4958 | 976.61
313.14 K, x1 = 0.5984 | 958.73
313.15 K, x1 = 0.0227 | 1090.43
313.15 K, x1 = 0.0509 | 1080.18
313.15 K, x1 = 0.6974 | 943.35
313.15 K, x1 = 0.7927 | 927.74
313.15 K, x1 = 0.8896 | 913.09

Cc1cc(C)nc(C)c1 [2,4,6-trimethylpyridine] + CO
Conditions | mass density [kg/m3]
276.15 K, x1 = 0.0204 | 816.99
276.15 K, x1 = 0.0511 | 830.47
276.15 K, x1 = 0.0997 | 848.99
276.15 K, x1 = 0.194 | 875.69
276.15 K, x1 = 0.2957 | 895.63
276.15 K, x1 = 0.3884 | 907.79
276.15 K, x1 = 0.489 | 916.36
276.15 K, x1 = 0.5852 | 921.51
276.15 K, x1 = 0.6949 | 925.01
276.15 K, x1 = 0.7971 | 926.99
276.15 K, x1 = 0.8889 | 928.16
276.15 K, x1 = 1 | 928.45
277.15 K, x1 = 0.0204 | 816.06
277.15 K, x1 = 0.0511 | 829.54
277.15 K, x1 = 0.0997 | 848.07
277.15 K, x1 = 0.194 | 874.77
277.15 K, x1 = 0.2957 | 894.71
277.15 K, x1 = 0.3884 | 906.88
277.15 K, x1 = 0.489 | 915.47
277.15 K, x1 = 0.5852 | 920.64
277.15 K, x1 = 0.6949 | 924.15
277.15 K, x1 = 0.7971 | 926.14
277.15 K, x1 = 0.8889 | 927.31
277.15 K, x1 = 1 | 927.61
283.14 K, x1 = 0.2957 | 889.2
283.14 K, x1 = 0.3884 | 901.42
283.14 K, x1 = 0.5852 | 915.35
283.14 K, x1 = 0.7971 | 921.01
283.15 K, x1 = 0.0204 | 810.47
283.15 K, x1 = 0.0511 | 823.96
283.15 K, x1 = 0.0997 | 842.5
283.15 K, x1 = 0.194 | 869.23
283.15 K, x1 = 0.489 | 910.1
283.15 K, x1 = 0.6949 | 918.95
283.15 K, x1 = 0.8889 | 922.22
283.15 K, x1 = 1 | 922.54
288.15 K, x1 = 0.0204 | 805.79
288.15 K, x1 = 0.0511 | 819.3
288.15 K, x1 = 0.0997 | 837.86
288.15 K, x1 = 0.194 | 864.59
288.15 K, x1 = 0.2957 | 884.59
288.15 K, x1 = 0.3884 | 896.86
288.15 K, x1 = 0.489 | 905.6
288.15 K, x1 = 0.5852 | 910.93
288.15 K, x1 = 0.6949 | 914.61
288.15 K, x1 = 0.7971 | 916.72
288.15 K, x1 = 0.8889 | 917.96
288.15 K, x1 = 1 | 918.32
293.14 K, x1 = 0.0997 | 833.2
293.14 K, x1 = 1 | 914.08
293.15 K, x1 = 0.0204 | 801.11
293.15 K, x1 = 0.0511 | 814.63
293.15 K, x1 = 0.194 | 859.94
293.15 K, x1 = 0.2957 | 879.97
293.15 K, x1 = 0.3884 | 892.28
293.15 K, x1 = 0.489 | 901.1
293.15 K, x1 = 0.5852 | 906.5
293.15 K, x1 = 0.6949 | 910.25
293.15 K, x1 = 0.7971 | 912.41
293.15 K, x1 = 0.8889 | 913.69
298.14 K, x1 = 0.0511 | 809.94
298.14 K, x1 = 0.6949 | 905.88
298.14 K, x1 = 0.8889 | 909.41
298.15 K, x1 = 0.0204 | 796.41
298.15 K, x1 = 0.0997 | 828.52
298.15 K, x1 = 0.194 | 855.28
298.15 K, x1 = 0.2957 | 875.33
298.15 K, x1 = 0.3884 | 887.69
298.15 K, x1 = 0.489 | 896.57
298.15 K, x1 = 0.5852 | 902.05
298.15 K, x1 = 0.7971 | 908.1
298.15 K, x1 = 1 | 909.84
303.14 K, x1 = 0.7971 | 903.77
303.14 K, x1 = 0.8889 | 905.12
303.15 K, x1 = 0.0204 | 791.7
303.15 K, x1 = 0.0511 | 805.24
303.15 K, x1 = 0.0997 | 823.83
303.15 K, x1 = 0.194 | 850.6
303.15 K, x1 = 0.2957 | 870.67
303.15 K, x1 = 0.3884 | 883.08
303.15 K, x1 = 0.489 | 892.04
303.15 K, x1 = 0.5852 | 897.58
303.15 K, x1 = 0.6949 | 901.49
303.15 K, x1 = 1 | 905.58
308.14 K, x1 = 0.0997 | 819.11
308.14 K, x1 = 0.194 | 845.89
308.14 K, x1 = 0.3884 | 878.45
308.14 K, x1 = 0.489 | 887.48
308.14 K, x1 = 0.5852 | 893.1
308.14 K, x1 = 0.6949 | 897.08
308.14 K, x1 = 0.7971 | 899.42
308.15 K, x1 = 0.0204 | 786.96
308.15 K, x1 = 0.0511 | 800.51
308.15 K, x1 = 0.2957 | 865.99
308.15 K, x1 = 0.8889 | 900.82
308.15 K, x1 = 1 | 901.31
313.14 K, x1 = 0.0204 | 782.2
313.14 K, x1 = 0.0511 | 795.75
313.14 K, x1 = 0.0997 | 814.36
313.14 K, x1 = 0.489 | 882.9
313.14 K, x1 = 0.6949 | 892.65
313.15 K, x1 = 0.194 | 841.15
313.15 K, x1 = 0.2957 | 861.28
313.15 K, x1 = 0.3884 | 873.79
313.15 K, x1 = 0.5852 | 888.59
313.15 K, x1 = 0.7971 | 895.05
313.15 K, x1 = 0.8889 | 896.49
313.15 K, x1 = 1 | 897.03
